We go through 1 substance from patent publication US20070149456A1, “Epithelial sodium channel inhibiting agents and uses therefor” (University of Pittsburgh, priority 2005, published 2007).

Entries after “also recorded” stand apart in the source; their conditions may differ.

The target in this assay is T1, αRtripleAβγ (Mus musculus, UniProt Q61180+Q9WU38+Q9WU39, R205A/R208A/R231A).
T1 construct: expressed in transfected cells; host or cells: Xenopus laevis oocytes (cRNA injection)
T1 sequence (Q61180 1-699 R205A/R208A/R231A): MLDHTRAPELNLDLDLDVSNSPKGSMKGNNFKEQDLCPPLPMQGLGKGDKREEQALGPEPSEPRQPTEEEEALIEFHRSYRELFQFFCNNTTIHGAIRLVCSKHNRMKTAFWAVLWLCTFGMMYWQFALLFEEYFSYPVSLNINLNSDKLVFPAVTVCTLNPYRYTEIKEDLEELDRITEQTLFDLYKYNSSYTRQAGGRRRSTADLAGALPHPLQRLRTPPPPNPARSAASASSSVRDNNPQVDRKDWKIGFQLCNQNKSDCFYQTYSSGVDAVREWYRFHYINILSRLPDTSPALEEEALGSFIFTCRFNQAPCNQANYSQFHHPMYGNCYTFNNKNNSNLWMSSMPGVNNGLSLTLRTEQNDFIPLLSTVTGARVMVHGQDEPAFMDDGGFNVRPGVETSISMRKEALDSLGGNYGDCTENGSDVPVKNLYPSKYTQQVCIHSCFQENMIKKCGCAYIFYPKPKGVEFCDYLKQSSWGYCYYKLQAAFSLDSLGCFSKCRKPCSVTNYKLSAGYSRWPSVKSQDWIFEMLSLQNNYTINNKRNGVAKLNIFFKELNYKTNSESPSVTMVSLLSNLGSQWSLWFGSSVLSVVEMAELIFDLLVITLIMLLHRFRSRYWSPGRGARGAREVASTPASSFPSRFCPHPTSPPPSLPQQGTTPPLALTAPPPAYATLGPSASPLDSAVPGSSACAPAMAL
T1 sequence (Q9WU38 1-638): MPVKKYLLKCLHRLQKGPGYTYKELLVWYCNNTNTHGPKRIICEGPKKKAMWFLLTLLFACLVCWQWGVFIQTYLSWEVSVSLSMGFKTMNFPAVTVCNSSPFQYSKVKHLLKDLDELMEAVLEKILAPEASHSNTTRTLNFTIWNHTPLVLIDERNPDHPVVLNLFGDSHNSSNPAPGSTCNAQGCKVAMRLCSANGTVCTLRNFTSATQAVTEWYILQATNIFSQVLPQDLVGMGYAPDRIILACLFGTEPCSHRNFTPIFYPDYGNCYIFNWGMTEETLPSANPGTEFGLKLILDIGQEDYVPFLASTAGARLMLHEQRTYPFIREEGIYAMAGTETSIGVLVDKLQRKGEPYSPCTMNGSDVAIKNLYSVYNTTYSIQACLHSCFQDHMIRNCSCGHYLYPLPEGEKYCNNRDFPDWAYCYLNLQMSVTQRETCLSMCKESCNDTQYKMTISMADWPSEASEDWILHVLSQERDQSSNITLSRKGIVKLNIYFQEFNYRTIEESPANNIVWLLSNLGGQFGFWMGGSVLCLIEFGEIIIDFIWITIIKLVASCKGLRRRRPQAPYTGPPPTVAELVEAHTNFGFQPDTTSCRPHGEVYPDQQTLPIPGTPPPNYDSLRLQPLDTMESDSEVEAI
T1 sequence (Q9WU39 1-655): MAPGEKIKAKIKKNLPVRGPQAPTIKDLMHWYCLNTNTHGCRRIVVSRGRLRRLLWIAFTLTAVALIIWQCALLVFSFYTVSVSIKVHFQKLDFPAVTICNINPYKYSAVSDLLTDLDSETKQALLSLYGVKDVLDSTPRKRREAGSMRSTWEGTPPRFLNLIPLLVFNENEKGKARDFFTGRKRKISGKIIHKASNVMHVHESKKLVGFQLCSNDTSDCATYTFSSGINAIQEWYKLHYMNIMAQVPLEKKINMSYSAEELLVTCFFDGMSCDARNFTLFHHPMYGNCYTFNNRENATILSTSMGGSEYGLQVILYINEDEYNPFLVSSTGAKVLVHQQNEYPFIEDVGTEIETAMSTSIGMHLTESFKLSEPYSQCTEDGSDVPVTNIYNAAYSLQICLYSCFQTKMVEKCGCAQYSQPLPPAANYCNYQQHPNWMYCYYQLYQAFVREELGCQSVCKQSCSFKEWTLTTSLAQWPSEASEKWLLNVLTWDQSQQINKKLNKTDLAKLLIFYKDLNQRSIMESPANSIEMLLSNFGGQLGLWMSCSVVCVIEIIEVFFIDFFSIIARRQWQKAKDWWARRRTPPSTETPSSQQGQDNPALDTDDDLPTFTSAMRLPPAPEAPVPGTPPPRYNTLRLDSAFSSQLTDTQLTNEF
Briefly: Two-electrode voltage clamp in oocytes expressing channels lacking furin cleavage of the α subunit. In kind it is cell-based. Particulars: 1 μM α-26. The text has this: Oocyte Expression—cRNAs for α, β, γ mouse ENaC (wild-type and mutant) subunits and mouse prostasin were synthesized with T3 or T7 m-Message mMachineTM (Ambion, Austin, Tex.). Subunits carrying furin cleavage consensus site mutations and the corresponding wild-type subunits have amino-terminal HA and carboxyl-terminal V5 tags (Hughey, R. P., Bruns, J. B., Kinlough, C. L., Harkleroad, K. L., Tong, Q., Carattino, M. D., Johnson, J. P., Stockand, J. D., and Kleyman, T. R. (2004) J. Biol. Chem. 279, 18111-18114 18). Stage V-VI Xenopus laevis oocytes were pretreated with 1.5 mg/ml of type IV collagenase and injected with 0.5-2 ng of cRNA/subunit. Injected oocytes were maintained as previously reported (Carattino, M. D., Hill, W. G., and Kleyman, T. R. (2003), Arachidonic Acid Regulates Surface Expression of Epithelial Sodium Channels, J Biol. Chem. 278, 36202-36213 29).
Two-electrode Voltage Clamp—Two-electrode voltage clamp (TEV) was performed as previously described (Carattino, M. D., Hill, W. G., and Kleyman, T. R. (2003) J Biol. Chem. 278, 36202-36213 29). The extracellular solution (TEV solution) was (in mM): 110 NaCl, 2 KCl, 1.54 CaCl2, 10 HEPES, pH 7.4, or otherwise as indicated. […] ENaC-mediated whole cell Na^+ currents, at −60 mV,were defined as the amiloride-sensitive component of the current. […]
In general terms: In two-electrode clamp one electrode senses voltage and the other passes current.

For the substance “Ac-DLRGALPHPLQRLRTPPPPNPARSAR-NH2 [α-26]”, the “block of channels” value is “does not block; also recorded: not blocked”.
